Laboratory results published in ChEMBL document CHEMBL1124752, “Cyclobut-A and cyclobut-G: broad-spectrum antiviral agents with potential utility for the therapy of AIDS” (J Med Chem, 1990).
Converted amounts (≈) assume the structure as drawn.

Columns and labels:
[1] = test system: Human immunodeficiency virus 1; assay: Tested for the determination of percentage protection at 100 uM against HIV-1 in ATH8 cells; format: functional, ATH-8
[2] = test system: Human immunodeficiency virus 1; assay: Tested for the determination of percentage protection at 10 uM against HIV-1 in ATH8 cells; format: functional, ATH-8
[3] = test system: Human immunodeficiency virus 1; assay: Tested for the determination of percentage protection at 1 uM against HIV-1 in ATH8 cells; format: functional, ATH-8
[4] = test system: Human immunodeficiency virus 1; assay: Tested for the determination of percentage protection at 50 uM against HIV-1 in ATH8 cells; format: functional, ATH-8
[5] = test system: Human betaherpesvirus 5; assay: In vitro antiviral activity tested against herpesvirus, HCMV, EC strain by plaque reduction assay in human foreskin fibroblasts; format: functional
[6] = test system: Human betaherpesvirus 5; assay: In vitro antiviral activity tested against herpesvirus, HCMV, LA strain by plaque reduction assay in human foreskin fibroblasts; format: functional
[7] = test system: Human betaherpesvirus 5; assay: In vitro antiviral activity tested against herpesvirus, HCMV, AD169 strain by plaque reduction assay in human foreskin fibroblasts; format: functional
[8] = test system: Human betaherpesvirus 5; assay: In vitro antiviral activity tested against herpesvirus, HCMV, CH strain by plaque reduction assay in human foreskin fibroblasts; format: functional
[9] = test system: Human betaherpesvirus 5; assay: In vitro antiviral activity tested against herpesvirus, HCMV, Davis strain by plaque reduction assay in human foreskin fibroblasts; format: functional
[10] = test system: Human immunodeficiency virus 1; assay: Tested for the determination of percentage toxicity at 1 uM against HIV-1 in ATH8 cells; format: organism-based; settings: human immunodeficiency virus 1, ath-8, 1 µM
[11] = test system: Human immunodeficiency virus 1; assay: Tested for the determination of percentage toxicity at 50 uM against HIV-1 in ATH8 cells; format: organism-based; settings: human immunodeficiency virus 1, ath-8, 50 µM
[12] = test system: Human alphaherpesvirus 1; assay: Tested for the effective dose required to inhibit HSV-1 in infected mice; format: functional
[13] = test system: Human alphaherpesvirus 1; assay: Tested for mean day to death of nonsurvivors against HSV-1 infection in mice at 4.7 mg/kg/day; format: functional
[14] = test system: Human alphaherpesvirus 1; assay: In vitro antiviral activity against herpesvirus, HSV-1, E-377 strain by plaque reduction assay in human foreskin fibroblasts; format: functional
[15] = test system: Human immunodeficiency virus 1; assay: Tested for the determination of percentage toxicity at 10 uM against HIV-1 in ATH8 cells; format: organism-based; settings: human immunodeficiency virus 1, ath-8, 10 µM
[16] = test system: Human alphaherpesvirus 1; assay: Number of survivors per number of HSV-1 infected mice treated with 4.7 mg/kg/day; 6/10; format: functional
[17] = test system: Human alphaherpesvirus 2; assay: Number of survivors per number of HSV-2 infected mice treated with 31.2 mg/kg/day; 9/10; format: functional
[18] = test system: Human alphaherpesvirus 2; assay: Tested for mean day to death of nonsurvivors against HSV-2 encephalitis in mice at 31.2 mg/kg/day; format: functional
[19] = test system: Human alphaherpesvirus 2; assay: Tested for mean day to death of nonsurvivors against HSV-2 encephalitis in mice at 7.8 mg/kg/day; format: functional
[20] = test system: Human alphaherpesvirus 2; assay: Number of survivors per number of HSV-2 infected mice treated with 125 mg/kg/day; 10/10; format: functional
[21] = test system: Human alphaherpesvirus 2; assay: Number of survivors per number of HSV-2 infected mice treated with 7.8 mg/kg/day; 5/10; format: functional
[22] = test system: Human alphaherpesvirus 2; assay: Tested for the effective dose required to inhibit HSV-2 encephalitis in infected mice; format: functional
[23] = test system: Human alphaherpesvirus 2; assay: In vitro antiviral activity tested against herpesvirus, HSV-2, HEET strain by plaque reduction assay in human foreskin fibroblasts; format: functional
[24] = test system: Human alphaherpesvirus 2; assay: In vitro antiviral activity tested against herpesvirus, HSV-2, JEN strain by plaque reduction assay in human foreskin fibroblasts; format: functional
[25] = test system: Human alphaherpesvirus 2; assay: In vitro activity tested against herpesvirus, HSV-2, MS strain by plaque reduction assay in human foreskin fibroblasts; format: functional
[26] = test system: Human immunodeficiency virus 1; assay: Tested for the determination of percentage toxicity at 100 uM against HIV-1 in ATH8 cells; format: organism-based; settings: human immunodeficiency virus 1, ath-8, 100 µM
[27] = test system: Human alphaherpesvirus 1; assay: Number of survivors per number of HSV-1 infected mice treated with 18.7 mg/kg/day; 10/10; format: functional
[28] = test system: Human alphaherpesvirus 1; assay: Number of survivors per number of HSV-1 infected mice treated with 75 mg/kg/day; 10/10; format: functional
[29] = test system: Human alphaherpesvirus 2; assay: In vitro antiviral activity tested against herpesvirus, HSV-2, X-79 strain by plaque reduction assay in human foreskin fibroblasts; format: functional
[30] = test system: Murid betaherpesvirus 1; assay: Tested for the effective dose required to inhibit systemic MCMV in infected mice; format: functional
[31] = test system: Murid betaherpesvirus 1; assay: Number of survivors per number of systemic MCMV infected mice treated with 33.4 mg/kg/day; 14/15; format: functional
[32] = test system: Murid betaherpesvirus 1; assay: In vitro antiviral activity tested against herpesvirus, MCMV, Smith strain by plaque reduction assay in mouse embryo fibroblasts; format: functional
[33] = test system: Murid betaherpesvirus 1; assay: Tested for mean day to death of nonsurvivors against systemic MCMV infection in mice at 11.2 mg/kg/day; format: functional
[34] = test system: Murid betaherpesvirus 1; assay: Tested for mean day to death of nonsurvivors against systemic MCMV infection in mice at 3.8 mg/kg/day; format: functional
[35] = test system: Murid betaherpesvirus 1; assay: Tested for mean day to death of nonsurvivors against systemic MCMV infection in mice at 33.4 mg/kg/day; format: functional
[36] = test system: Murid betaherpesvirus 1; assay: Number of survivors per number of systemic MCMV infected mice treated with 100 mg/kg/day; 15/15; format: functional
[37] = test system: Murid betaherpesvirus 1; assay: Number of survivors per number of systemic MCMV infected mice treated with 11.2 mg/kg/day; 14/15; format: functional
[38] = test system: Murid betaherpesvirus 1; assay: Number of survivors per number of systemic MCMV infected mice treated with 3.8 mg/kg/day; 4/15; format: functional
[39] = test system: Human alphaherpesvirus 3; assay: In vitro antiviral activity tested against herpesvirus, VZV, Ellen strain by plaque reduction assay in human foreskin fibroblasts; format: functional
[40] = test system: Human alphaherpesvirus 3; assay: In vitro antiviral activity tested against herpesvirus, VZV, OKA strain by plaque reduction assay in human foreskin fibroblasts; format: functional
[41] = species on record: Homo sapiens; assay: The drug concentration was determined to reduce proliferation of human foreskin fibroblasts to 50% of untreated controls in proliferation assay; format: functional; settings: read-out: ID50 (the source's name)
[42] = test system: Human immunodeficiency virus 1; assay: Tested for the determination of percentage protection at 1 uM concentrations against HIV-1 in ATH8 Cells; format: functional
[43] = test system: Human immunodeficiency virus 1; assay: Tested for the determination of percentage protection at 100 uM concentrations against HIV-1 in ATH8 Cells; format: functional
[44] = test system: Human immunodeficiency virus 1; assay: Tested for the determination of percentage protection at 20 uM concentrations against HIV-1 in ATH8 Cells; format: functional
[45] = test system: Human immunodeficiency virus 1; assay: Tested for the determination of percentage protection at 5 uM concentrations against HIV-1 in ATH8 Cells; format: functional
[46] = test system: Human immunodeficiency virus 1; assay: Tested for the determination of percentage toxicity at 20 uM concentrations against HIV-1 in ATH8 Cells; format: functional
[47] = test system: Human immunodeficiency virus 1; assay: Tested for the determination of percentage toxicity at 5 uM concentrations against HIV-1 in ATH8 Cells; format: functional
[48] = test system: Human immunodeficiency virus 1; assay: Tested for the determination of percentage toxicity at 1 uM concentrations against HIV-1 in ATH8 Cells; format: functional
[49] = test system: Human immunodeficiency virus 1; assay: Tested for the determination of percentage toxicity at 100 uM concentrations against HIV-1 in ATH8 Cells; format: functional
[50] = read-out: ED50 (the source's name)
[51] = read-out: ID50 (the source's name)

SMILES: Nc1ncnc2c1ncn2[C@@H]1C[C@H](CO)[C@H]1CO
- Protection [1]: 52%
- Protection [2]: 63%
- Protection [3]: 47%
- Protection [4]: 48%
- EC50 [5, 50]: 2.2 µg/mL (≈ 8.83 µM)
- IC50 [5, 51]: > 100 µg/mL
- EC50 [6, 50]: 1 µg/mL (≈ 4.01 µM)
- IC50 [6, 51]: > 100 µg/mL
- EC50 [7, 50]: 3.7 µg/mL (≈ 14.8 µM)
- IC50 [7, 51]: > 100 µg/mL
- EC50 [8, 50]: 0.9 µg/mL (≈ 3.61 µM)
- IC50 [8, 51]: > 100 µg/mL
- EC50 [9, 50]: 0.9 µg/mL (≈ 3.61 µM)
- IC50 [9, 51]: > 100 µg/mL
- Cytotoxity [10]: 11%
- Cytotoxity [11]: 42%
- ED50 [12]: < 4.7 mg/kg/day
- MDD [13]: 7.5
- EC50 [14, 50]: 1 µg/mL (≈ 4.01 µM)
- IC50 [14, 51]: > 100 µg/mL
- Cytotoxity [15]: 32%
- Survivors / treated [16]: 6
- Survivors / treated [17]: 9
- MDD [18]: 10
- MDD [19]: 10.8
- Survivors / treated [20]: 10
- Survivors / treated [21]: 5
- ED50 [22]: 9.7 mg/kg/day
- EC50 [23, 50]: 2.2 µg/mL (≈ 8.83 µM)
- IC50 [23, 51]: > 100 µg/mL
- EC50 [24, 50]: 2.3 µg/mL (≈ 9.23 µM)
- IC50 [24, 51]: > 100 µg/mL
- EC50 [25, 50]: 1.6 µg/mL (≈ 6.42 µM)
- IC50 [25, 51]: > 100 µg/mL
- Cytotoxity [26]: 44%
- Survivors / treated [27]: 10
- Survivors / treated [28]: 10
- EC50 [29, 50]: 1.8 µg/mL (≈ 7.22 µM)
- IC50 [29, 51]: > 100 µg/mL
- ED50 [30]: 2.7 mg/kg/day
- Survivors / treated [31]: 14
- EC50 [32, 50]: 0.05 µg/mL (≈ 0.201 µM)
- IC50 [32, 51]: > 100 µg/mL
- MDD [33]: 6
- MDD [34]: 5.3
- MDD [35]: 5
- Survivors / treated [36]: 15
- Survivors / treated [37]: 14
- Survivors / treated [38]: 4
- EC50 [39, 50]: 2.1 µg/mL (≈ 8.42 µM)
- IC50 [39, 51]: > 100 µg/mL
- EC50 [40, 50]: 2 µg/mL (≈ 8.02 µM)
- IC50 [40, 51]: > 100 µg/mL
- IC50 [41]: 7.7 µg/mL (≈ 30.9 µM)

SMILES: Cc1cn([C@H]2C[C@H](N=[N+]=[N-])[C@@H](CO)O2)c(=O)[nH]c1=O [ZIDOVUDINE]
- Protection [42]: 65%
- Protection [43]: 47%
- Protection [44]: 65%
- Protection [45]: 96%
- Cytotoxicity [46]: 54%
- Cytotoxicity [47]: 30%
- Cytotoxicity [48]: 3%
- Cytotoxicity [49]: 54%
